Reference: patent EP4653444A1, “FUSED TRICYCLIC COMPOUND AS KINASE INHIBITOR” (Hangzhou Innogate Pharma Co., Ltd., priority 2023, dated 2024)
Read-outs that look alike come from different tables or passages of the source.

Tests used:
FAK kinase = FAK kinase (Homo sapiens, UniProt Q05397); assay: FAK kinase activity inhibition assay, method A (HTRF) and method B (Lantha screen); assay type: biochemical
Procedure: The HTRF method was used to evaluate the inhibitory activity of the compounds against FAK kinase. […]. The reaction conditions were: FAK kinase at 0.1 ng/µL; ATP 10 µM; substrate concentration 1 µM. Compounds were serially diluted in DMSO and shaken on a shaker for 20 minutes. Prepare 2× kinase using 1× reaction buffer. Transfer 25 nL compound to a 384-well plate using Echo 655. Add 2.5 µL kinase per well. Seal the plate with sealing film, centrifuge at 1000 rpm for 60 seconds, and incubate at 25°C for 12 hours. Prepare 2× ATP/substrate mix using 1× enzyme reaction buffer and add 2.5 µL 2× ATP/substrate mix per well. Seal the plate with sealing film, centrifuge at 1000 rpm for 60 seconds, and incubate at 25°C for 50 minutes. Prepare 2×XL665 & antibody solution using HTRF detection buffer, and add 5 µL per well. Incubate at 25°C for 60 minutes. Read fluorescence at 620 nm (Cryptate) and 665 nm (XL665). Calculate the ratio per well (Ratio_665/620 nm). % Inhibition = 100% - [(Compound Ratio - Positive Control Ratio)/ (Negative Control Ratio - Positive Control Ratio)] × 100%. IC50 values (half-maximal inhibitory concentration) were calculated by nonlinear regression using GraphPad Prism 7.0. Y = Bottom + (Top - Bottom)/ (1 + 10^ ((LogIC50 - X) × Hill Slope)), where X is the log of compound concentration and Y is the % inhibition.
The Lantha screen assay was used to evaluate the FAK kinase inhibitory activity. Compounds were dissolved in 100% DMSO at 10 mM stock concentration. Prepare 1× kinase buffer (25 mM HEPES, pH 7.5, 0.01 mM Triton, 0.5 mM EGTA, 0.01% Brij-35). Dilute compounds in a gradient, and transfer 5 µL compound into the reaction plate. Prepare 2× kinase solution with 1× Kinase buffer. Add 5 µL kinase solution to compound and positive control wells, and 5 µL 1× Kinase buffer to negative control wells. Mix reaction plate by shaking. Prepare 4× ATP/Fluorescein-polyGT substrate mix with 1× Kinase buffer. Add 2.5 µL substrate solution to initiate the reaction. Shake and incubate at room temperature for 30 minutes. Prepare 2× detection reagent (2 nM antibody, 10 mM EDTA) and add 10 µL per well to stop the reaction. Briefly centrifuge, mix, and incubate for 60 minutes. Read fluorescence at 340 nm excitation and 520 nm/495 nm emission using EnVision. Collect data and calculate 520 nm/495 nm ratio. Calculate the inhibition percentage using the formula: % Inhibition = (Max - Sample Ratio)/(Max - Min) × 100, where min is the mean of negative control wells (no enzyme activity), and max is the mean of positive control wells (DMSO-inhibited conversion rate).Use XLFit Excel add-in version 5.4.0.8 to determine the IC50 values of each compound against the enzyme activity: Y = Bottom + (Top - Bottom)/(1 + (IC50/X)^HillSlope).

CDK7/CycH/MAT1 kinase = CDK7/CycH/MAT1 kinase (Homo sapiens, UniProt P50613); assay: CDK7 kinase activity inhibition assay (ADP-Glo); assay type: biochemical
Procedure: Measure compound inhibitory activity against CDK7/CycH/MAT1 kinase using ADP-Glo assay. 1× kinase reaction buffer was prepared (working concentrations: HEPES 50 mM, MgCl2 10 mM, Brij35 0.01%, DTT 2 mM). The kinase reaction conditions were as follows: Kinase concentration: 3.5 ng/µL; Substrate mixture working concentrations: ATP 30 µM, CDK substrate 0.1 mg/ mL. Compounds were serially diluted in DMSO and shaken on an orbital shaker for 20 minutes. 2× kinase solution was prepared using 1× kinase buffer. 1 µL of compound solution was transferred to a 384-well plate. 2 µL of kinase solution was added to each well of the reaction plate. The plate was sealed with adhesive film, centrifuged at 1000 rpm for 60 seconds, and incubated at 25°C for 10 minutes. 4× ATP&substrate mixture was prepared using 1× kinase buffer. 1 µL of 4× ATP&substrate mixture was added to the reaction plate. The plate was sealed with adhesive film, centrifuged at 1000 rpm for 60 seconds, and incubated at 25°C for 60 minutes. 4 µL of ADP-Glo reagent was transferred to the 384-well reaction plate, centrifuged at 1000 rpm for 1 minute, and incubated at 25°C for 40 minutes. 8 µL of Detection solution was transferred to the 384-well reaction plate, centrifuged at 1000 rpm for 1 minute, and incubated at 25°C for 40 minutes. Relative luminescence units (RLU) were measured using a BMG microplate reader, with signal intensity representing kinase activity level. The inhibition percentage was calculated as follows: % inhibition = 100% - [(Compound RLU - Positive Control RLU)/(Negative Control RLU - Positive Control RLU)] × 100%. The IC50 values (half-maximal inhibitory concentration) of compounds were determined by fitting the data to the following nonlinear regression equation using GraphPad Prism 7.0 software: Y = Bottom + (Top - Bottom)/(1 + 10^((LogIC50 - X) × Hill Slope)), where: X = log(compound concentration), Y = % inhibition.

[1] = Pharmacokinetic study in rats; conditions: rat, plasma, po, 3 mg/kg
Procedure: Pharmacokinetic parameters were calculated by statistical moment method using WinNonLin 8.0 software, mainly including Tmax, T1/2, Cmax and AUC0-24h.
Animals: Three male SD rats weighing 200-220 g were used. After purchase, they were housed in the laboratory animal center for 2 days before experiment. […] Blood samples were collected at scheduled time points after oral gavage.
Vehicle: 0.4% ethanol + 0.4% Tween 80 + 99.2% (0.5% methylcellulose M450). Preparation of oral gavage solution: The compound was accurately weighed and dissolved in vehicle by ultrasonication for 5 min at room temperature to prepare 0.3 mg/mL drug solution.
Single compound administration was also used to study pharmacokinetics in rats.
Blood sample collection: After oral gavage, blood samples were collected from orbital sinus at 0.25, 0.5, 1, 2, 4, 8, 10 and 24 h. 50 µL plasma was mixed with 200 µL acetonitrile (containing 2 ng/mL verapamil as internal standard). The mixture was vortexed for 3 min, then centrifuged at 20000 rcf for 10 min at 4 °C. The supernatant was analyzed by LC-MS/MS.
Standard curves were established by accurately weighing and preparing compounds at different concentrations for mass spectrometric quantification. Compound concentrations in plasma samples were determined based on standard curves to obtain concentration-time profiles. All measurement data were collected and processed by relevant software. Pharmacokinetic parameters (including Tmax, T1/2, Cmax and AUC0-24h) were calculated by statistical moment method.

[2] = Table 4, ATP 30 µM, read-out: CDK7 (IC50)

Chain of FAK kinase (Q05397 whole entry): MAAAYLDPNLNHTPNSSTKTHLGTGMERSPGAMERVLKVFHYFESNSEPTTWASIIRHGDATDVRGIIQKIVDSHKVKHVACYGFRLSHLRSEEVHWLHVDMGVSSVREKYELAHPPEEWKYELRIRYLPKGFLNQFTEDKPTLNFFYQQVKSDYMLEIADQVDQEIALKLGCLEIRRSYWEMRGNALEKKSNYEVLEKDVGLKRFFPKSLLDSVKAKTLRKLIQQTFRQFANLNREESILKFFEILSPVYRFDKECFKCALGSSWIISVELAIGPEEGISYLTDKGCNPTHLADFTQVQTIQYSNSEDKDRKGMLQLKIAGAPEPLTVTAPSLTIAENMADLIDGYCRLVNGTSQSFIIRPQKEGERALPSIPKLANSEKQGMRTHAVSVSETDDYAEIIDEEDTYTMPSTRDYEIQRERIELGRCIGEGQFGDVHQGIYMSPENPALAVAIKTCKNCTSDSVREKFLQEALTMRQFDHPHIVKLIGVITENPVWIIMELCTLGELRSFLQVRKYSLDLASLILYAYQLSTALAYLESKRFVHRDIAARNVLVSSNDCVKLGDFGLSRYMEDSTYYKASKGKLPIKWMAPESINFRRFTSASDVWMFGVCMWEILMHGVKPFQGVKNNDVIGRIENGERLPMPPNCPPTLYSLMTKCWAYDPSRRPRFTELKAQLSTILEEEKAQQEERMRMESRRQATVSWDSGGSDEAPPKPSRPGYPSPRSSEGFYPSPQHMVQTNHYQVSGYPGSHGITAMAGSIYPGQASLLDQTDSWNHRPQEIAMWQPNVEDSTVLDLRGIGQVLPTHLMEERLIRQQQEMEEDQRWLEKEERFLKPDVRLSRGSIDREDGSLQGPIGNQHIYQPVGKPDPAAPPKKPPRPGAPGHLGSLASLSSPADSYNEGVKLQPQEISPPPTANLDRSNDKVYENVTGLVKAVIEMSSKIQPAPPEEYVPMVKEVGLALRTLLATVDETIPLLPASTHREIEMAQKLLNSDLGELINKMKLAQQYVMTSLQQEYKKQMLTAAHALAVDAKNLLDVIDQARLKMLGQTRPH
Chain of CDK7/CycH/MAT1 kinase (P50613 whole entry, species assumed): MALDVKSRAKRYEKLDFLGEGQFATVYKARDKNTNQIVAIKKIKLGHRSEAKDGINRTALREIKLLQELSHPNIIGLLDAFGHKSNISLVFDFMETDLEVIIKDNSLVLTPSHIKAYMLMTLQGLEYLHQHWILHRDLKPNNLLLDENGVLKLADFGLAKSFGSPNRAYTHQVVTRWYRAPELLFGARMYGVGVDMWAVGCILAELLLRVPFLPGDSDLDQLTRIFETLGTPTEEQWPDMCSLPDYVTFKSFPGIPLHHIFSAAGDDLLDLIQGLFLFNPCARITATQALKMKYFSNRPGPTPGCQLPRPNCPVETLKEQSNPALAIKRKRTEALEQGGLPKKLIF
Chain of CDK7/CycH/MAT1 kinase (P51946 whole entry partner, species assumed): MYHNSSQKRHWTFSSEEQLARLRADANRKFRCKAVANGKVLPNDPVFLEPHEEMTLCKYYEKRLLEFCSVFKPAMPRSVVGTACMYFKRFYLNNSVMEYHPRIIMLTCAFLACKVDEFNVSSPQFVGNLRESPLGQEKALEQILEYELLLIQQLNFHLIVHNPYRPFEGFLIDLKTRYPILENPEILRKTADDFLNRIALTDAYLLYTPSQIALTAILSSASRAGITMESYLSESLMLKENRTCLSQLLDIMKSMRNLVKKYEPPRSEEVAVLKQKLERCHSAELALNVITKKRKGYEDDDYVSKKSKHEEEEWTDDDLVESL
Chain of CDK7/CycH/MAT1 kinase (P51948 whole entry partner, species assumed): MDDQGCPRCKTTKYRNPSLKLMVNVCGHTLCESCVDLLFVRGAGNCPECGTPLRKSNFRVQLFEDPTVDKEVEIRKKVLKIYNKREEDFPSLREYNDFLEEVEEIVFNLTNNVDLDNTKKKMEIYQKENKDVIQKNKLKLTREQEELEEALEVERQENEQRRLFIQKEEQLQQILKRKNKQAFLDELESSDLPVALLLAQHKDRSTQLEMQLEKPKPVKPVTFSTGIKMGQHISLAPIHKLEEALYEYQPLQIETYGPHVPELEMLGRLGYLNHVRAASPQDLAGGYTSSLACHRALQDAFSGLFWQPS

Compound | IC50 (FAK kinase) | IC50 (CDK7/CycH/MAT1 kinase; [2]) | AUC(0-t) at 24 h [1] | Cmax [1] | Tmax [1] | half-life [1] | IC50 (CDK7/CycH/MAT1 kinase)
CNC(=O)c1ccccc1Nc1cc(Nc2cc3c(cc2OC)N2CCN(C4CCN(C)CC4)C[C@H]2CO3)ncc1C(F)(F)F [Compound D2S] | < 0.5 nM | < 15 nM | 1470 ng·h/mL | 134 ng/mL | 3.33 h | 5.97 h | 
CNC(=O)c1ccccc1Nc1cc(Nc2cc3c(cc2OC)N2CCN(C4CN(C)C4)C[C@H]2CO3)ncc1C(F)(F)F [Compound D4S] | < 1 nM | < 10 nM | 1660 ng·h/mL | 241 ng/mL | 5.33 h | 3.03 h | 
CNC(=O)c1ccccc1Nc1cc(Nc2cc3c(cc2OC)N2CCN(C4CCN(C)CC4)C[C@@H]2CO3)ncc1C(F)(F)F [Compound D2R] | < 1 nM |  |  |  |  |  | < 15 nM
COc1cc2c(cc1Nc1ncc(Cl)c(Nc3ccccc3S(=O)(=O)C(C)C)n1)OC[C@@H]1CN(C3CCOCC3)CCN21 [Compound C1S] | < 1 nM |  | 136 ng·h/mL | 61.8 ng/mL | 0.83 h | 1.78 h | 
COc1cc2c(cc1Nc1ncc(Cl)c(Nc3ccccc3S(=O)(=O)C(C)C)n1)OC[C@@H]1CN(C3CCN(C)CC3)CCN21 [Compound C2S] | < 1 nM |  | 1970 ng·h/mL | 135 ng/mL | 10 h | 9.2 h | 
